Counter-ions that a name gives are not always drawn. Like-named read-outs stand apart in the source and are kept apart here.
How the values were obtained:
β-lactamase = target: T1, β-lactamase (Citrobacter freundii, UniProt P05193); test: biochemical
T1 construct: Various β-lactamases can be isolated from penicillin- or cephalosporin-resistant bacterial strains such as; endogenous in cells; host or cells: Citrobacter freundii 1203 (enzyme purified from the crude cell extract, after ampicillin induction when necessary)
T1 sequence (P05193 21-381): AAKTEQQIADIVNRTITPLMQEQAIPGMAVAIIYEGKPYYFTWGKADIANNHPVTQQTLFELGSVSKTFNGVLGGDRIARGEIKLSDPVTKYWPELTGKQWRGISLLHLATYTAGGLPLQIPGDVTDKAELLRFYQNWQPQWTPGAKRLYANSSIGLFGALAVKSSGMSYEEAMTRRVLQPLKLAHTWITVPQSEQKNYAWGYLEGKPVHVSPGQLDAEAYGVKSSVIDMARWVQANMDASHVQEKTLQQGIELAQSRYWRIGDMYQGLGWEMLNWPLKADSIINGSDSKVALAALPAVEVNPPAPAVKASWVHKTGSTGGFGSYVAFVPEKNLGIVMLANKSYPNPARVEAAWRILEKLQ
Procedure: A. Isolation of the β-lactamases
Various β-lactamases can be isolated from penicillin- or cephalosporin-resistant bacterial strains such as Klebsiella pneumoniae NCTC 418, Proteus vulgaris 1028, Bacillus licheniformis 749/C, Escherichia coli SN01 and Citrobacter freundii 1203. For this purpose, the corresponding strains are cultivated in Tryptic Soy Broth (Difco) and harvested by centrifugation in the last logarithmic growth phase (when necessary 50-100 mg/l of ampicillin are added to the medium towards the end of the log-phase in order to induce the β-lactamase). The thus-obtained bacterial mass is treated with 20 mM Tris-HCl buffer (pH 7.0); the cells are broken open with a French press while cooling. The mixture is centrifuged (20,000 r/min.) for 20-30 minutes and a clear crude extract is obtained.
B. Determination of the β-lactamase activity
The determination of the activity of the isolated β-lactamases can be carried out according to the method of O'Callaghan, C. H. et al. [Antimicr. Ag. Chemother., 1, 283-288 (1972)] using the chromogenic cephalosporin nitrocefin (87/312 from Glaxo). The requisite test batch contains per ml of water: 50 mM phosphate buffer (pH 7.0), 0.1 mM nitrocefin and sufficient enzyme (β-lactamase) to achieve a ΔA/min. of about 0.1. The cleavage of the substrate, which is accompanied by a change in colour, is effected at 37° C. and is followed quantitatively at 482 nm using a spectral photometer.
C. Determination of the β-lactamase-inhibiting activity of the compounds of general formula I
The above-described cleavage of the chromogenic substrate by β-lactamases (test B.) can be inhibited by the addition of compounds of general formula I (inhibitors). […] As a measurement for the affinity of the particular tested inhibitor to the β-lactamase, which is a measurement of the strength of the inhibitor, there serves that concentration which inhibits by 50% (IC 50 in nM) the cleavage of the substrate (nitrocefin) effected under the above test conditions (test B) in the absence of an inhibitor. […] The determination of the IC50 was effected by means of a graph.
(Test organism: Citrobacter freundii)

Citrobacter freundii = test: MIC in vitro of a 1:4 combination of ceftriaxone with a compound of formula I (test D); type: cell-based; details: 1:4 combination of ceftriaxone with the compound
Procedure: D. Determination of the β-lactamase-inhibiting activity by combination of a compound of general formula I with ceftriaxone
The minimum inhibitory concentration in vitro (MIC in μg/ml) of a 1:4 combination of ceftriaxone with a compound of formula I against Citrobacter freundii is measured and compiled in Table 2 hereinafter.

[1] = IC 50 nM, isolated β-lactamase of Citrobacter freundii, substrate nitrocefin 0.1 mM, 15 minutes pre-incubation with inhibitor, 37° C., pH 7.0

Structure (SMILES)	IC50 (β-lactamase) [nM]	MIC (Citrobacter freundii) [µg/mL]	IC50 (β-lactamase; [1]) [nM]
NC(C(=O)N1CC[C@@H]2[C@H]1C(=O)N2S(=O)(=O)O)c1cccc(O)c1 (mixture of isomers) [6(q), (1S,5R)-2-[DL-2-(m-Hydroxyphenyl)glycyl]-7-oxo-2,6-diazabicyclo[3.2.0]heptane-6-sulphonic acid]	375	2	–
NC(C(=O)N1CC[C@@H]2[C@H]1C(=O)N2S(=O)(=O)O)c1ccc(O)cc1 (mixture of isomers) [6(s), (1S,5R)-2-[R,S-Amino-(4-hydroxyphenyl)-acetyl]-7-oxo-2,6-diazabicyclo[3.2.0]heptane-6-sulphonic acid sodium salt]	584	4	–
NC(C(=O)N1CC[C@@H]2[C@H]1C(=O)N2S(=O)(=O)[O-])c1ccccc1F.[Na+] (mixture of isomers) [8(c), (1S,5R)-2-[DL-2-(o-Fluorophenyl)glycyl]-7-oxo-2,6-diazabicyclo[3.2.0]heptane-6-sulphonic acid sodium salt]	–	2	120
O=C1SCCC1NC(=O)N1CC[C@@H]2[C@H]1C(=O)N2S(=O)(=O)O (mixture of isomers) [17(j), (1S,5R)-7-Oxo-2-(R,S)-(2-oxo-3-tetrahydrothienyl-carbamoyl)-2,6-diazabicyclo[3.2.0]heptane-6-sulphonic acid sodium salt]	79	2	–
O=C(NC1CCS(=O)(=O)C1)N1CC[C@@H]2[C@H]1C(=O)N2S(=O)(=O)[O-].[Na+] (mixture of isomers) [17(x), (1S,5R)-2-[(R) and (S)-1,1-Dioxo-tetrahydrothiophen-3-ylcarbamoyl]-7-oxo-2,6-diaza-bicyclo[3.2.0]heptane-6-sulfonic acid sodium salt]	–	2	199
O=C(NCC1CCCO1)N1CC[C@@H]2[C@H]1C(=O)N2S(=O)(=O)[O-].[Na+] (mixture of isomers) [17(y), (1S,5R)-2-[(R) and (S)-Tetrahydrofuran-2-ylmethylcarbamoyl]-7-oxo-2,6-diaza-bicyclo[3.2.0]heptane-6-sulfonic acid sodium salt]	–	1	238
NC(C(=O)N1CC[C@@H]2[C@H]1C(=O)N2S(=O)(=O)O)c1cccs1 (single isomer, unassigned) [5(e), (1S,5R)-2-[(R or S)-α-Amino-(2-thienyl)acetyl]-7-oxo-2,6-diazabicyclo[3.2.0]heptane-6-sulphonic acid]	85	2	–
CC(=O)NC(C(=O)N1CC[C@@H]2[C@H]1C(=O)N2S(=O)(=O)O)c1ccccc1 (single isomer, unassigned) [5(g), (1S,5R)-2-[D- or L-N-Acetyl-2-phenylglycyl]-7-oxo-2,6-diazabicyclo[3.2.0]-heptane-6-sulphonic acid sodium salt]	150	8	–
N[C@@H](C(=O)N1CC[C@@H]2[C@H]1C(=O)N2S(=O)(=O)O)c1ccccc1 [4(b), (1S,5R)-7-Oxo-2-(D-2-phenylglycyl)-6-2,6-diazabicyclo[3.2.0]heptane-6-sulphonic acid]	250	2	–
N[C@H](C(=O)N1CC[C@@H]2[C@H]1C(=O)N2S(=O)(=O)O)c1ccccc1 [4(d), (1S,5R)-7-Oxo-2-(L-2-phenylglycyl)-2,6-diazabicyclo[3.2.0]heptane-6-sulphonic acid]	275	2	–
N[C@H](Cc1ccccc1)C(=O)N1CC[C@@H]2[C@H]1C(=O)N2S(=O)(=O)O [4(f), (1S,5R)-7-Oxo-2-(3-phenyl-D-alanyl)-2,6-diazabicyclo[3.2.0]heptane-6-sulphonic acid]	280	4	–
O=C(CNc1ccccc1)N1CC[C@@H]2[C@H]1C(=O)N2S(=O)(=O)[O-].[Na+] [5(b), (1S,5R)-7-Oxo-2-(N-phenylglycyl)-2,6-diazabicyclo[3.2.0]heptane-6-sulphonic acid sodium salt]	–	2	110
